{"source": "paper PMC4928072", "about": "“Dietary apigenin potentiates the inhibitory effect of interferon-α on cancer cell viability through inhibition of 26S proteasome-mediated interferon receptor degradation” (Food & Nutrition Research, 2016)", "format_in_all_cases": "biochemical", "key": {"[1]": {"target": "T1, 26S proteasome, β2 subunit (trypsin-like activity) (Homo sapiens, UniProt Q99436)", "T1 construct": "gene PSMB7; purified human 26S proteasome; with other subunits of the 26S proteasome", "T1 sequence (Q99436 44-277)": "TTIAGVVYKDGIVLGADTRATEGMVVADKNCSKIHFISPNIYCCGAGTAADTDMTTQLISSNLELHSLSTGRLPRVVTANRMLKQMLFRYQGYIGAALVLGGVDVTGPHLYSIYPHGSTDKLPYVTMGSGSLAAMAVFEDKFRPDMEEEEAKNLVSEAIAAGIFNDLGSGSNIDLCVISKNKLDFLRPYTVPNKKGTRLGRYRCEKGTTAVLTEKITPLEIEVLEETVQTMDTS", "experiment": "fluorogenic peptidase assay of purified human 26S proteasome with Ac-Arg-Leu-Arg-AMC"}, "[2]": {"target": "T2, 26S proteasome, β5 subunit (chymotrypsin-like activity) (Homo sapiens, UniProt P28074)", "T2 construct": "gene PSMB5; purified human 26S proteasome; with other subunits of the 26S proteasome", "T2 sequence (P28074 60-263)": "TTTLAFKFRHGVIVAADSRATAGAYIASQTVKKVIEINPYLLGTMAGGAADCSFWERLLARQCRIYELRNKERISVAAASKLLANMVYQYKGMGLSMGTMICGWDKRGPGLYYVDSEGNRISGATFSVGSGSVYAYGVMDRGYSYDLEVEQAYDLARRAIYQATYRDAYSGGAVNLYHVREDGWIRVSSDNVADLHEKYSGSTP", "experiment": "fluorogenic peptidase assay of purified human 26S proteasome with Suc-Leu-Leu-Val-Tyr-AMC"}, "[3]": {"target": "T3, 26S proteasome, β1 subunit (caspase-like activity) (Homo sapiens, UniProt P28072)", "T3 construct": "gene PSMB6; purified human 26S proteasome; with other subunits of the 26S proteasome", "T3 sequence (P28072 35-239)": "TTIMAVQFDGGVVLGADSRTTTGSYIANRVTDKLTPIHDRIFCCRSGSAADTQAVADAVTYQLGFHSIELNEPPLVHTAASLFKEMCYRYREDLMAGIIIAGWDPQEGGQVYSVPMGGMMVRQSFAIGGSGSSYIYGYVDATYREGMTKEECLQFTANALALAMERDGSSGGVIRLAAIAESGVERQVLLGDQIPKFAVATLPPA", "experiment": "peptidase assay of purified human 26S proteasome with Z-Nle-Pro-Nle-Asp-aminoluciferin"}}}
{"smiles": "O=c1cc(-c2ccc(O)cc2)oc2cc(O)cc(O)c12", "note": "[apigenin]", "values": [{"measurement": "IC50", "setting": "[1]", "result": 20, "unit": "µM"}, {"measurement": "IC50", "setting": "[2]", "result": 11.5, "unit": "µM"}, {"measurement": "IC50", "setting": "[3]", "result": 1.5, "unit": "µM"}]}
